This note sets out measurements from ChEMBL document CHEMBL1152912, “Protective effects of a benzoxazine derivative against oxidized LDL-induced apoptosis and the increases of integrin beta4, ROS, NF-kappaB and P53 in human umbilical vein endothelial cells” (Bioorg Med Chem Lett, 2009).

For data set [1], the system named is HUVEC. As to the kind of experiment: Antiapoptotic activity against low density lipoprotein-induced apoptosis in HUVEC cells by Hoechst 33258 staining. The note with it: Homo sapiens. The class given is functional, cell-based.
Data set [2] deals with HUVEC. As to the kind of experiment: Antiapoptotic activity against low density lipoprotein-induced apoptosis in HUVEC cells assessed as nuclear condensation after 24 hrs by acridin orange staining. The class given is functional, cell-based. The conditions noted are these: Homo sapiens.
For data set [3], the system named is HUVEC. As to the kind of experiment: Cytotoxicity against HUVEC cells assessed as reduction in low density lipoprotein-induced cell viability at 50 uM by MTT assay. The class given is cell-based. The conditions noted are these: human. Background: Tetrazolium dyes change colour on reduction, which living cells bring about.
Data set [4] deals with HUVEC. As to the kind of experiment: Antiapoptotic activity against low density lipoprotein-induced apoptosis in HUVEC cells assessed as nuclear fragmentation after 24 hrs by acridin orange staining. Format: functional, cell-based. The conditions noted are these: Homo sapiens.
Data set [5] has as its system HUVEC. Briefly: Antiapoptotic activity against low density lipoprotein-induced vascular apoptosis in HUVEC cells assessed as inhibition of ROS by lase scanning confocal microscope. Format: functional, cell-based. The conditions noted are these: Homo sapiens.
The subject of data set [6] is HUVEC. Briefly: Antiapoptotic activity against low density lipoprotein-induced apoptosis in HUVEC cells assessed as inhibition of integrin beta4 level at 50 uM by immunofluorescence technique. The note with it: Homo sapiens. The class given is functional, cell-based.
Data set [7] concerns HUVEC. Briefly: Antiapoptotic activity against low density lipoprotein-induced apoptosis in HUVEC cells assessed as apoptotic cell after 24 hrs by TUNEL assay. Format: functional, cell-based. The conditions noted are these: Homo sapiens.
In data set [8] the test system is HUVEC. As to the kind of experiment: Antiapoptotic activity against low density lipoprotein-induced vascular apoptosis in HUVEC cells assessed as modulation of P53 level by lase scanning confocal microscope. The conditions noted are these: Homo sapiens. The class given is functional, cell-based.
Data set [9] relates to HUVEC. As to the kind of experiment: Antiapoptotic activity against low density lipoprotein-induced vascular apoptosis in HUVEC cells assessed as modulation of NF-kappaB level by lase scanning confocal microscope. The class given is functional, cell-based. The conditions noted are these: Homo sapiens.
Data set [10] has as its system HUVEC. As to the kind of experiment: Antiapoptotic activity against low density lipoprotein-induced vascular apoptosis in HUVEC cells assessed as translocation of NF-kappaB across the nucleus by lase scanning confocal microscope. Format: functional, cell-based. The note with it: Homo sapiens.

The source made the active and inactive calls. No cut-off for these calls is given here.

On to `Nc1ccc2c(c1)NC(CO)CO2` (stereo not given), for which the results for the Activity entry in the data set on HUVEC [1] and in the data set on HUVEC [3] were “Dose-dependent effect” and “Toxic”, respectively. The result in the data set with HUVEC [2], with HUVEC [4], with HUVEC [5], in the data set with HUVEC [6], with HUVEC [7] and with HUVEC [8] was Active. Further, the outcome with HUVEC [9] and with HUVEC [10] was Active.
